The text below walks through data of patent publication US12486255B2, “Modulators of RAS GTPase” (Tosk, Inc., priority 2018, dated 2025).

Data set [1] concerns SW480 cells. Nature of the data set: Cytotoxicity assay, CellTiter-Glo 2.0, SW480 cells. It is filed as cell-based. As to conditions: SW480, human colon cancer cell line expressing kRAS G12V; 48 hours. As for the experimental part: FIG. 2, panels A-B, illustrate the cytotoxicity of Structure 2 and Structure 3 on SW480 cells. The cytotoxicity of compounds of interest was tested against the human colon cancer cell line SW480 as described in the experimental section. SW480 cells express a mutant G12V kRAS. Compounds were incubated with cells for 48 hours and the assay was developed using Cell Titer Glo 2.0. IC50 vales were determined using GraphPad Prism 4.
(§1) Compounds were assayed for inhibition of cell proliferation and killing cancer cells. Cytotoxicity assays were conducted according to the following general procedure. SW480, SW48, SW900, SW620 were all maintained in Leibowitz L15 media supplemented with 10% fetal bovine serum and 1% PenStrep and grown in a 37° C. incubator without supplemental CO2. Capan-1 cells were maintained in Iscove's Modified Dulbecco's Medium (ATCC 30-2005) containing 20% fetal bovine serum and 1% PenStrep and grown in a 37° C. incubator containing 5% CO2.
(§2) For dose-response assays, SW480 cells were plated into 96 well plates (1 million/plate, ˜10,000/well, 250 μL media/well). Cells were allowed to settle and adhere to plate bottom overnight Compounds were placed in 500 μL media and mixed. Then 250 μL compounds+media was placed in an intermediate plate in row A. Rows B through H were filled with 125 μL media. […] Luminescence was read with FLx800 (BioTek Instruments).

In data set [2] the test system is SW48 cells. Description: Cytotoxicity assay, CellTiter-Glo 2.0, SW48 cells. The class given is cell-based. As to conditions: SW48, human colon cancer cell line expressing wild type kRAS (EGF receptor mutation); 48 hours. As for the experimental part:
FIG. 3, panels A-B, illustrates the cytotoxicity of Structure 2 and Structure 3 on SW48 cells. The cytotoxicity of compounds of interest were tested against the human colon cancer cell line SW48 as described in the experimental section. SW48 cells express the wild type kRAS but are driven by an EGF receptor mutation G1255A. Compounds were incubated with cells for 48 hours and the assay was developed using Cell Titer Glo 2.0. IC50 vales were determined using GraphPad Prism 4.
as §1
For dose-response assays, SW480 cells were plated into 96 well plates (1 million/plate, ˜10,000/well, 250 μL media/well). Cells were allowed to settle and adhere to plate bottom overnight Compounds were placed in 500 μL media and mixed. […] Luminescence was read with FLx800 (BioTek Instruments).
(In general: Cellular ATP, detected with luciferase, serves as a proxy for viable cell number.)

The subject of data set [3] is A431. Nature of the data set: Cytotoxicity assay, A431 cells. To be noted: A431, human epidermoid carcinoma cell line expressing wild type kRAS. It is filed as cell-based. As for the experimental part:
as §1

For data set [4], the system named is phosphorylated ERK 1/2 (T202/Y204). Description: Phosphorylated ERK bioassay (Western blot, SW480 cells). As to conditions: 3 μM, 24 hours, in the presence of serum. The class given is cell-based, human. As for the experimental part:
As described herein, the main downstream target for kRAS is ERK (Samatar et al., Targeting RAS-ERK signaling in cancer: promises and challenges. Nat Rev Drug Discov. 2014; 13:928-42). kRAS activates ERK leading to phosphorylated ERK. A compound that suppresses kRAS activity is expected to lower phosphorylated ERK.
Test articles abrogate the expression of phosphorylated ERK (T202/Y204) SW480 cells were subjected to test article incubation at 3 μM for 24 hours in the presence of serum to mimic natural growth environment. Cells were extracted and total protein of samples normalized through BCA assay. Processed extracts were subjected to SDS-PAGE/Western blot and blotted for phosphorylated ERK 1/2 (T202/Y204); ERK 1/2; and α-Tubulin.
The compound U0126 in FIG. 8 is a MEK inhibitor which is known to suppress phosphorylation of ERK. The compound was tested along with the test articles to serve as a positive control.
(In general: A western blot detects proteins with antibodies after separation by electrophoresis.)

In data set [5] the test system is SW620 cells. Nature of the data set: Cytotoxicity assay, CellTiter-Glo 2.0, SW620 cells. The class given is cell-based. To be noted: SW-620; SW620, human colon cancer cell line expressing mutant G12V kRAS; 48 hours. The procedure: FIG. 6, panels A-B, illustrate the cytotoxicity of Structure 2 and Structure 3 on SW620 Cells. The cytotoxicity of compounds of interest were tested against the human colon cancer cell line SW620 as described in the experimental section. SW620 cells express a mutant G12V kRAS. Compounds were incubated with cells for 48 hours and the assay was developed using Cell Titer Glo 2.0. IC50 values were determined using GraphPad Prism4.
as §1, §2

For data set [6], the system named is HT-1080 cells. Description: Cell morphology assay. The class given is cell-based, human. To be noted: 24 hours, 1.2-100 μM, Alexa Fluor 488 Phalloidin. The procedure: FIG. 7, panels A-F, illustrate the effect of an exemplary compound of Structure 2 on the HT-1080 cells in a cell morphology assay. Effect of Structure 2 on the HT-1080 cells in cell morphology assay. HT1080 cells were seeded in 6-well plates at 300,000 per plate, incubated overnight and various amounts of Structure 2 (compound 1) in the DMSO vehicle or vehicle control added. After 24 hours, cells were washed, fixed with formaldehyde, stained with Alexa Fluor 488 Phalloidin and imaged using a fluorescence microscope. […]
An assay was performed (see e.g., Kato-Stankiewicz et al., Inhibitors of RAS/Raf-1 interaction identified by two-hybrid screening revert RAS-dependent transformation phenotypes in human cancer cells. Proc Natl Acad Sci USA. 2002; 99: 14398-403) to evaluate the ability of an inhibitor to dampen the RAS/RAF/MEK/ERK pathway and provide a reversion of cell appearance from a rounded to a flat, elongated morphology (Paterson et al., Activated nRAS controls the transformed phenotype of HT1080 human fibrosarcoma cells. Cell. 1987 Dec. 4; 51 (5):803-12). […] Cells were then washed 2 times with PBS and imaged using a Zeiss Axiovert 25 fluorescence microscope.

A value given as a limit tells only on which side of the number the result lay.

The IC50 is the concentration at which inhibition is half-maximal. `Cc1nc(-c2ccc(CNC(=O)c3cc(CC(C)C)nn3C)cc2)no1` [Structure 2, 3-isobutyl-1-methyl-N-(4-(5-methyl-1,2,4-oxadiazol-3-yl)benzyl)-1H-pyrazole-5-carboxamide]: the values for the IC50 in data set [1], in data set [2] and in data set [5] were 232 nM, 607 nM and 55 nM, respectively. The “not cytotoxic at concentrations up to” value in data set [3] is above 40 µM. Besides, in data set [4], the “phosphorylated ERK (T202/Y204)” value was “dramatically decrease phosphorylated ERK”. In data set [6], the “reversion of cell phenotype (morphology)” value is “produced reversion of cell phenotype from the rounded to the flatter more elongated morphology”.
